Assays:
[1] = system: optic nerve head and retina; conditions: in vivo; cited from earlier work
[2] = system: intraocular pressure (IOP); test: Ad.TGFβ2-induced ocular hypertension in mice, topical ocular administration; format: in vivo; conditions: conscious mice, rebound tonometer
Description: FIGS. 12a-12b are graphs showing the effect of topical ocular administration of various concentrations of cilostazol compared to control on Ad.TGFβ2-induced ocular hypertension in mice. Ad.TGFβ2 viral vector was injected on Day 0. Dosing with Cilostazol or vehicle was performed on the indicated days (denoted by horizontal bars). Intraocular pressure (IOP) was monitored in conscious mice using a rebound tonometer.

PAI-1 [3] = test: PAI-1 ELISA: effect on TGFβ2-induced total PAI-1 protein in HTM cell supernatants; format: cell-based, human; conditions: TGFβ2 5 ng/mL, 24 h
Description: FIGS. 9-11 present graphs showing the effect of cilostazol, 3,4-dehydro cilostazol, and cilostamide on TGFβ2-induced (5 ng/mL; 24 h) total PAI-1 protein in supernatants from human trabecular meshwork (HTM) cell lines. Cilostazol was tested against three different HTM cell lines (GTM, NTM470-05, and GTM191-04).
(§1) Human TM cell culture: Human TM cells were isolated from post-mortem human donor tissue, characterized, and cultured as previously described. Generation and characterization of the transformed (GTM-3) cell line was also as previously described (Pang et al., Preliminary characterization of a transformed cell strain derived from human trabecular meshwork., Curr. Eye Res., Vol. 13:51-63, 1994.)
(§2) PAI-1 ELISA: 24-well plates of TM cell cultures were serum-deprived for 24 h followed by an additional 24 h (or as indicated) incubation with TGFβ2 in a serum-free medium. Aliquots of supernatants from the treated cultures were quantified for secreted PAI-1 content by means of human PAI-1 ELISA kit (American Diagnostica).

PAI-1 [4] = conditions: non-ocular tissues of rats; cited from earlier work
retinal ganglion cells = conditions: post-axotomy; cited from earlier work
PAI-1 [5] = test: PAI-1 ELISA: TGFβ2 effect on PAI-1 levels in GTM-3 cell supernatants; format: cell-based, human; conditions: GTM-3 cells
Description: PAI-1 mediated effects may contribute to the previously observed TGFβ2-mediated accumulation of extracellular matrix materials in various tissues, including TM tissues. […] TGFβ2-treatment results in both concentration-dependent and time-dependent accumulation of PAI-1 in TM cell supernatants (FIGS. 1 and 2). PAI-1 levels increase gradually in response to TGFβ2, reaching a constant level at approximately 24 h post-treatment.
as §1, §2

[6] = system: human TM cells (GTM-3, GTM730); test: TM cell adhesion to vitronectin substrate (InnoCyte ECM Cell Adhesion Assay); format: cell-based; conditions: TGFβ2 5 ng/mL, 2 hr, GTM-3 and GTM730 cells
Description: as §1
TM cell adhesion: TM cell adhesion was determined by means of InnoCyte ECM Cell Adhesion Assay (Calbiochem). TM cells (20,000/well; serum-free medium) were plated onto a vitronectin-coated 96-well plate. Test agents were then added, followed by incubation in a cell culture incubator for the times indicated. Non-adherent cells were then removed by decantation and gentle wash of the wells with PBS. Relative cell attachment was determined by means of fluorescent dye (calcein-AM) uptake.

[7] = cited from earlier work

In the case of `O=C1CCc2cc(OCCCCc3nnnn3C3CCCCC3)ccc2N1` [cilostazol, Cilostazol], the “blood flow to the optic nerve head and retina” value [1] is listed as “enhance blood flow”, the “IOP-lowering effect relative to control (Maxidex vehicle)” value ([2]; 0.3% cilostazol formulation) is listed as “substantial IOP-lowering effects” and the “IOP-lowering effect relative to control (Maxidex vehicle)” value ([2]; 1.0% cilostazol formulation) is listed as “substantial IOP-lowering effects”. For the same compound, the “effect on TGFβ2-induced total PAI-1 protein in supernatants” value (shortened to “effect … in supernatants”) (PAI-1 [3]; three HTM cell lines (GTM, NTM470-05, GTM191-04), FIGS. 9a-9c) was “dose-dependent inhibitory effect”, the “TGFβ2 and PAI-1 protein expression and PAI-1 activity” value (PAI-1 [4]) was “suppresses” and the “survival of retinal ganglion cells” value (retinal ganglion cells) was “increase the survival of retinal ganglion cells”.

With `CN(C(=O)CCCOc1ccc2[nH]c(=O)ccc2c1)C1CCCCC1` [cilostamide, Cilostamide] the “effect … in supernatants” value (PAI-1 [3]; GTM-3 HTM cells, FIGS. 10-11) was “dose-dependent inhibitory effect”.

For “TGFβ2: cytokine transforming growth factor β2”, the “time to constant PAI-1 level post-treatment” value (PAI-1 [5]; TGFβ2 5 ng/mL) was “approximately 24 h”, the “PAI-1 content in trabecular meshwork cell cultures” value (PAI-1 [5]; concentration- and time-dependent) was “increases the PAI-1 content” and the “effect on TM cell adhesion compared to controls” value [6] was “did not experience measurable loss of adhesion”.

In the case of `O=c1ccc2cc(OCCCCc3nnnn3C3CCCCC3)ccc2[nH]1` [3,4-dehydro cilostazol, 3,4-dehydro-cilostazol], the “effect … in supernatants” value (PAI-1 [3]; GTM-3 HTM cells, FIGS. 10-11) is given as “dose-dependent inhibitory effect”, the “share of total activity attributed to cilostazol” value ([7]; may account for) is given as no less than 50% and the “activity relative to cilostazol” value ([7]; reportedly) is given as 4-7 fold.
